Consider one compound from PMC12406256, “Food Additives Inhibit Intestinal Drug Transporters but Have Limited Effect on In Vitro Drug Permeability” (Molecular Pharmaceutics, 2025).

One data set concerns the target T1, MRP2 (Homo sapiens, UniProt Q92887).
T1 construct: made in house; host or cells: Spodoptera frugiperda Sf9 cells, crude membrane vesicles
Put plainly: Vesicular transport assay, MRP2 (CDCF substrate). It counts as biochemical. To be noted: food additive 50 μM; CDCF 5 μM; n = 1.

The target of the next data set is T2, OATP2B1 (Homo sapiens, UniProt O94956).
T2 construct: expressed in transfected cells; host or cells: HEK293 cells (ATCC) transduced with recombinant OATP2B1 baculovirus
T2 sequence (O94956 1-709): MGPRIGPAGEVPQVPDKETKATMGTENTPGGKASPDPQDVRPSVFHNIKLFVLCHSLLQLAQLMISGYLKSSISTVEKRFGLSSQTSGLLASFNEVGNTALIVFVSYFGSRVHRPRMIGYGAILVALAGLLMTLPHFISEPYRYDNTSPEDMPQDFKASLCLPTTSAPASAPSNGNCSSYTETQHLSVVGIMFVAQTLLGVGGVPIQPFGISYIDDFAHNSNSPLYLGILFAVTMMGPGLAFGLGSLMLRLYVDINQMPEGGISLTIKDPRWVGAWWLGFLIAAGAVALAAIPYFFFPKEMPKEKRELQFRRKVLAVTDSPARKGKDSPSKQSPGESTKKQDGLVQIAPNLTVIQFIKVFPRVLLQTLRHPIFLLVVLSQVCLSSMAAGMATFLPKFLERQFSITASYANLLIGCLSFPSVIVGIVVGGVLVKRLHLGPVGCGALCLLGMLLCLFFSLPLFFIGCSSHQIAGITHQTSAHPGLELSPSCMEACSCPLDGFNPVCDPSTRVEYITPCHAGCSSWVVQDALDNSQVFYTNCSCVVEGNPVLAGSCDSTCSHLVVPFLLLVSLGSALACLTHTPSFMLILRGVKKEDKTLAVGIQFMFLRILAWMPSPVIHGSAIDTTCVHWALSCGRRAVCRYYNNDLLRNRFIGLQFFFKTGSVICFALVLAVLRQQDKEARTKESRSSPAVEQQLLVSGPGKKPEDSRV
In words: HEK293 uptake assay, OATP2B1 (5-carboxyfluorescein substrate). It counts as cell-based. As for the experimental part: The inhibition of OATP2B1 was studied using a HEK293 cell-based uptake assay. HEK293 cells were cultured in DMEM supplemented with 10% FBS at 37 °C and 5% CO2 and seeded at 22,500 cells/well on 96-well plates coated with 0.1 mg/mL poly-D-lysine. After 24 h, the medium was replaced with a transduction mix (DMEM with 10% FBS, 5 mM sodium butyrate, and recombinant OATP2B1 or enhanced yellow fluorescent protein [eYFP, negative control] baculoviruses). The baculoviruses were produced as previously described. The uptake assay was performed after approximately 48 h. […] Test solutions also contained the substrate. Cells were washed with warm transport buffer and preincubated at 37 °C. Preincubation solutions were replaced with test solutions and incubated at 37 °C with shaking at 250 rpm. Transport was terminated by aspirating the test solution and washing the wells with an ice-cold transport buffer (150 μL) three times. Wells were left to dry, and cells were lysed with 0.1 M NaOH. […] Total protein concentration was measured from six random wells with a Pierce Coomassie (Bradford) Assay kit (Thermo Fisher Scientific) to ensure a similar protein concentration in the OATP2B1 and eYFP wells.

The subject of the next data set is Caco-2 cells. Further details: method as in not given. To be noted: micellar formulation, ref not given; cited from earlier work.
Data set [1] concerns the target T3, P-gp (Homo sapiens, UniProt P08183). Put plainly: Vesicular transport assay, P-gp (N-methyl-quinidine substrate).
In a further data set the target is T4, BCRP (Homo sapiens, UniProt Q9UNQ0).
T4 sequence (Q9UNQ0 1-655): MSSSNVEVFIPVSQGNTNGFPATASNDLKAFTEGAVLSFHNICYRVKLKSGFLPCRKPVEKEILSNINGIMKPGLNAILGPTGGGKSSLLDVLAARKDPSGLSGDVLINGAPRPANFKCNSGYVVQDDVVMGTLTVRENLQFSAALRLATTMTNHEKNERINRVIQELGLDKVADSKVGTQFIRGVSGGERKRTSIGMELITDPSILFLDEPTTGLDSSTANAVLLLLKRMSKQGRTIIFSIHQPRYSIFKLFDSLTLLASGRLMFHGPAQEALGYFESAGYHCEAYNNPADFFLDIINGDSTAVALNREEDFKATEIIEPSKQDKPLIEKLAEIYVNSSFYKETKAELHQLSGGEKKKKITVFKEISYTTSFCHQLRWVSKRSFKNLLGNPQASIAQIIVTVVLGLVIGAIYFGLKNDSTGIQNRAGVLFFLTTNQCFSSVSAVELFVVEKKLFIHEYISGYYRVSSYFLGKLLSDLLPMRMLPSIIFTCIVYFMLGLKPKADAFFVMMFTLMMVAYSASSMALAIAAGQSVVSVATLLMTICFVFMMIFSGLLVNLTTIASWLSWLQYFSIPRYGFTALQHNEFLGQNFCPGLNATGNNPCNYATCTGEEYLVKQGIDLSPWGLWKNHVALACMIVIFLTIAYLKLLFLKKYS
In words: Vesicular transport assay, BCRP (Lucifer yellow substrate). Type of data set: biochemical. Further details: made in house; host or cells: Spodoptera frugiperda Sf9 cells, crude membrane vesicles.

In data set [2] the target is T3, P-gp. Also on record: made in house; host or cells: Spodoptera frugiperda Sf9 cells, crude membrane vesicles. The following applies: Caco-2 cells; ref previous studies; cited from earlier work.

One may read the IC50 as the concentration that gives 50% inhibition. Broadly, the inhibition is the share of the control response that was lost under treatment.

T3 sequence (P08183 whole entry): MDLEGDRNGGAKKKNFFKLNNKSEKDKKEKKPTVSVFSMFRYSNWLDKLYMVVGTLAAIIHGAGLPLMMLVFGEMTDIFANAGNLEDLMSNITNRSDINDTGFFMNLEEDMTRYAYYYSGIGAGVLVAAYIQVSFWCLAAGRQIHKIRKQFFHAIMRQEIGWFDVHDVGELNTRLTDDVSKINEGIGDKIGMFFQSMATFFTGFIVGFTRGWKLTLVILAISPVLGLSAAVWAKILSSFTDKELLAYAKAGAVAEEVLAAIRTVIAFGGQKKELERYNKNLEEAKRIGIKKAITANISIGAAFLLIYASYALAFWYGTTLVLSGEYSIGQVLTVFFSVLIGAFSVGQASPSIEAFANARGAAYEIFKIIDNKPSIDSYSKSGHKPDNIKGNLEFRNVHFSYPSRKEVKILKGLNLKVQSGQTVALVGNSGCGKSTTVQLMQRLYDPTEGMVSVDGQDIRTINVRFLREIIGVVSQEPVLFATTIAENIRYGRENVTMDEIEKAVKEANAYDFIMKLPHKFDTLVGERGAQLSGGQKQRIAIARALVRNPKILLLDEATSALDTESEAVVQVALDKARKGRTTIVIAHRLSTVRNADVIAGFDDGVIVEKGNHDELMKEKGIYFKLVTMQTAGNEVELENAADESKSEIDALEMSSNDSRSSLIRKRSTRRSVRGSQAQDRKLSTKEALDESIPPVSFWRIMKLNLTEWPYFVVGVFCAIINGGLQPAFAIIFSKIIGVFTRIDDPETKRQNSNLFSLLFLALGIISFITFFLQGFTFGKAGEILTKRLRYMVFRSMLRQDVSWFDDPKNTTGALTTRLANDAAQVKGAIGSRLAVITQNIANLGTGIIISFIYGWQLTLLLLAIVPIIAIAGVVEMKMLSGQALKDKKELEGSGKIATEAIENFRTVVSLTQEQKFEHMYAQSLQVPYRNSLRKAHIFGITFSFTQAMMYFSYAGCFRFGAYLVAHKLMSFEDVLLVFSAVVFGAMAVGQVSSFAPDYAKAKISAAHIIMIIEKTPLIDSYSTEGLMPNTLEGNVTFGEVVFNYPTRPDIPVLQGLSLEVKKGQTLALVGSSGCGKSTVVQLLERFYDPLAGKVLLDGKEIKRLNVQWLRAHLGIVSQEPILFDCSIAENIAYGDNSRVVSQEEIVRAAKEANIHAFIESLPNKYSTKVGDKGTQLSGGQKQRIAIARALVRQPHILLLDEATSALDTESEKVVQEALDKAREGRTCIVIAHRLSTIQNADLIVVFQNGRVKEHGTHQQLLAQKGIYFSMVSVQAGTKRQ
T1 sequence (Q92887 whole entry): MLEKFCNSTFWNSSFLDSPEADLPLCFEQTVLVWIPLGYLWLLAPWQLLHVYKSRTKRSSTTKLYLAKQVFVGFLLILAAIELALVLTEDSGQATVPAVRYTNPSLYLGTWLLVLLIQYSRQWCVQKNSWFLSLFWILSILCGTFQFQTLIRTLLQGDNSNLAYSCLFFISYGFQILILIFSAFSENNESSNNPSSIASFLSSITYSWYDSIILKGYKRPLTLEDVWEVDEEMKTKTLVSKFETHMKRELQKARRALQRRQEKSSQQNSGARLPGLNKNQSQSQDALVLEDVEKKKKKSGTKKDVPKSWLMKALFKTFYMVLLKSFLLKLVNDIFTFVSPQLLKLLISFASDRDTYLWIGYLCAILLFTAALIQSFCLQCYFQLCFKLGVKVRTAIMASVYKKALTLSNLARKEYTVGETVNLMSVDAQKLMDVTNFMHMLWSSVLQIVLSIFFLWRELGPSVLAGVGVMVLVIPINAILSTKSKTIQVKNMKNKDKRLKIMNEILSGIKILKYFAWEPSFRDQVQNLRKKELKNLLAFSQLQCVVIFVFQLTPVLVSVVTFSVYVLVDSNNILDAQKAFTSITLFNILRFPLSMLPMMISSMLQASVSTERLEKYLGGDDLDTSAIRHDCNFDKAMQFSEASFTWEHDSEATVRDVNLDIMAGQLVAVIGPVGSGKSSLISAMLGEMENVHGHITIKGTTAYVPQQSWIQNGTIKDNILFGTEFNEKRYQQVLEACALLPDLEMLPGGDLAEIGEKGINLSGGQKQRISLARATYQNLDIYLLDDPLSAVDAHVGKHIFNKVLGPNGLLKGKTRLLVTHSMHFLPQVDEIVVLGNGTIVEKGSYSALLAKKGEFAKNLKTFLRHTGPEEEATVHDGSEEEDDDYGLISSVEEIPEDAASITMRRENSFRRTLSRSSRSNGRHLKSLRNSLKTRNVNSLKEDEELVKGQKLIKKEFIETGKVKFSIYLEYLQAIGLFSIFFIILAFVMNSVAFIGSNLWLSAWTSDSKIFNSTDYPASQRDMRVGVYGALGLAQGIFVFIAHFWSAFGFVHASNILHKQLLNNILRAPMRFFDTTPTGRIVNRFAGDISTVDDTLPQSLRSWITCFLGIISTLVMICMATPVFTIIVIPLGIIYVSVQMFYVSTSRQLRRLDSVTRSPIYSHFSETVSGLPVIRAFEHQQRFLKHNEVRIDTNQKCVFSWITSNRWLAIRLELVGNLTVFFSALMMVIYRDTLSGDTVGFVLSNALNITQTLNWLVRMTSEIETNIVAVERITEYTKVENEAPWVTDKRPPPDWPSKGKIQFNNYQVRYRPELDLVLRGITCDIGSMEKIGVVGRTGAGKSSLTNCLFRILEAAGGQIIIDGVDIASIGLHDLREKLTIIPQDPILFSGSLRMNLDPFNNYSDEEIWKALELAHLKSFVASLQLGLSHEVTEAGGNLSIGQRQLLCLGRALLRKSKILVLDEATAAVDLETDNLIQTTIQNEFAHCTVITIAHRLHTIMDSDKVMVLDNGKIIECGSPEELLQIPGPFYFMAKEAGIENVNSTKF

For the compound `CC1=C(/C=C/C(C)=C/C=C/C(C)=C/C=C/C=C(C)/C=C/C=C(C)/C=C/C2=C(C)CCCC2(C)C)C(C)(C)CCC1` [beta-carotene], the “inhibition of MRP2 substrate accumulation” value against MRP2 is given as “did not inhibit”. In addition, the IC50 is 27.5 µM at OATP2B1 (5-carboxyfluorescein 2 μM, HEK293 cells, pH 6, n = 3, read-out: IC50 (95% CI), OATP2B1); 3.2 µM against P-gp [1]; 12.1 µM at BCRP (Lucifer yellow 50 μM, membrane vesicles, n = 3, read-out: IC50 (95% CI), BCRP). The inhibition at 50 μM is at least 50% on OATP2B1 (human, HEK293 cells transduced with recombinant OATP2B1 baculovirus, pH 6, probe 5-carboxyfluorescein 2 μM, food additive 50 μM, n = 1, read-out: inhibition of OATP2B1-mediated uptake); at least 50% on P-gp [1] (Sf9-derived crude membrane vesicles expressing P-gp, pH 7, probe N-methyl-quinidine 2 μM); at least 50% on BCRP (Sf9-derived crude membrane vesicles expressing BCRP, pH 7, probe Lucifer yellow 50 μM, food additive 50 μM, n = 1, read-out: inhibition of BCRP substrate accumulation). For the same compound, the “applied dose recovered in the basolateral chamber” value in the data set on Caco-2 cells is at most 35%. Also, the “P-gp inhibition in Caco-2 cells” value on P-gp [2] is given as “inhibitor of P-gp”.
